# Measured values from patent publication US11414379B2, “SPAK kinase inhibitors as neuroprotective agents” (United States Government as represented by the Department …, priority 2018, dated 2022).
# How the values were obtained:
# pSPAK/pOSR1 and pNKCC1 = experiment: Phosphorylation in ischemic mouse brains, immunoblot; assay type: in vivo
# Procedure: (§1) The membranes were incubated for 30 min with TBST (Tris-buffered saline, 0.05% Tween-20) containing 5% (w/v) skim milk. The blots were then washed six times with TBST and incubated for 1 hour at room temperature with secondary HRP-conjugated antibodies diluted 5000-fold in 5% (w/v) skim milk in TBST. After repeating the washing steps, signals were detected with enhanced chemiluminescence reagent. Immunoblots were developed using a film automatic processor (SRX-101; Konica Minolta Medical) and films were scanned at 600 dpi (PowerLook 1000; UMAX). Figures were generated using Photoshop/Illustrator (Adobe). The densities of bands were measured with ImageJ. For phospho-antibody immunoprecipitation, KCC isoforms were immunoprecipitated from indicated cell extracts. 2 mg of the indicated clarified cell extract were mixed with 15 μg of the indicated phospho-specific KCC antibody conjugated to 15 μl of protein-G-Sepharose, in the added presence of […] of the dephosphorylated form of the phosphopeptide antigen, and incubated 2 hours at 4° C. with gentle shaking. Immunoprecipitates were washed three times with 1 mL of lysis buffer containing 0.15 M NaCl and twice with 1 ml of buffer A. Bound proteins were eluted with 1×LDS sample buffer.
# (§2) Brain homogenates were prepared as previously described (Bhuiyan et al. (2017) Journal of cerebral blood flow and metabolism: official journal of the International Society of Cerebral Blood Flow and Metabolism 37: 2780-2794). Mice were anesthetized with 5% isoflurane vaporized in N20 and 02 (3:2), then decapitated. […] The pellet was re-suspended in the homogenization buffer. Protein content in both membrane and cytosolic fractions was determined by the standard bicinchoninic acid method.
# (§3) Referring to FIG. 14A, representative immunoblots (IB) of phospho-SPAK/OSR1 (pSPAK/pOSR1), phospho-KCC3 and phospho-NKCC1 (pNKCC1) in mouse brains studied 24 hrs post-reperfusion after ischemic stroke are shown. Membrane protein fractions were prepared from contralateral (CL) and ipsilateral (IL) cerebral hemispheres. Vehicle (Veh, DMSO) or ZT-1a (5 mg/kg) was administered as described in FIG. 11A, FIG. 11B, and FIG. 13. Na^+-K^+ ATPase α-subunit and GAPDH served, respectively, as loading controls for membrane and cytosol fractions.
# (§4) Referring to FIG. 14B, densitometry analyses of immunoblots (similar to those in panel A) of pSPAK/pOSR1, pNKCC1, tSPAK/tOSR1, and tNKCC1 in mouse brains studied 24 hrs reperfusion after tMCAO are shown. Data are means±SEM, n=5 per group (male 3, female 2). *p<0.05.
# pKCC3 = experiment: as above; assay type: in vivo
# Procedure: as §1, §2, §3, §4
# [1] = system: mouse model of ischemic stroke; experiment: Neurological function tests after tMCAO; assay type: in vivo; conditions: 5.0 mg/kg
# Procedure: The scores were: 0, no observable deficit; 1, forelimb flexion; 2, forelimb flexion and decreased resistance to lateral push; 3, forelimb flexion, decreased resistance to lateral push, and unilateral circling; 4, forelimb flexion and partial or complete lack of ambulation.
# In brief, the corner test apparatus consists of two cardboards (30×20×1 cm each) placed together at a 30° angle to form a narrow alley. The mouse was placed between the two angled boards facing the corner. When exiting the corner, uninjured mice turned left or right randomly. […] The numbers of left and right turns of each mouse during 10 trials were recorded, and turning movements that were not part of a rearing movement were not scored. Preoperative training was carried twice per day for three days prior to operation. Postoperatively, animals were tested on day 1, 3, 5, and 7.
# In brief, two small pieces of adhesive tape (4 mm×3 mm) were attached to the forepaws in an alternating sequence and with equal pressure by the experimenter before each trial. Animals were released into a testing cage, and the time of contact and removal of the adhesive patch were recorded. Contact was recorded when either shaking of the paw or mouth contact occurred. The trial ended after the adhesive patch was removed or after 2 min had elapsed. Preoperative training was carried twice per day for three days prior to operation. Postoperatively, animals were tested on day 1, 3, 5, and 7.
# Referring to FIG. 13, neurological deficit scores, corner tests, and adhesive tape contact and adhesive tape removal tests of mice treated with vehicle or ZT-1a 1 day before tMCAO (˜1) and at days 0, 1, 3, 5, and 7 post-tMCAO are shown. Vehicle (DMSO, 2 ml/kg) or ZT-1a (5.0 mg/kg) were administered as described in B. Data are means±SEM, n=6 for each group (male 3, female 3). * p<0.05 vs. vehicle.
# AMPK (hum) = experiment: Kinase panel (Dundee profiling); assay type: biochemical, human
# Procedure: The kinase selectivity of ZT-1a was further assessed using standard radioisotopic enzymatic assays against a panel of 140 recombinant kinases (Dundee profiling, Table 2) (Bain et al. (2007) The Biochemical journal 408, 297-315). ZT-1a at a concentration of 10 μM inhibited only MAPKAP-K2 activity 85±7% compared to DMSO control, representing high kinase selectivity.
# Referring to Table 2, ZT-1a was tested at 10 and 1 μM against a panel of 140 recombinant kinases in an enzymatic activity-based assay performed by the International Centre for Kinase Profiling in the MRC Protein Phosphorylation and Ubiquitylation Unit. Values represent % residual kinase activity (mean+/−SEM, n=3). Kinases labelled with an asterick* are inhibited ≥50% by ZT-1a.
# [2] = compared to vehicle-control mice
# [3] = ipsilateral cortex membrane fractions, 24 hrs reperfusion, 5 mg/kg
smiles,measurement,setting,value
"Cc1cc(C(C#N)c2ccc(Cl)cc2)c(Cl)cc1NC(=O)c1cc(Cl)ccc1O (stereo not drawn) [ZT-1a, 5-chloro-N-(5-chloro-4-((4-chlorophenyl)(cyano)methyl)-2-methylphenyl)-2-hydroxy-benzamide]",reduction of ischemia-induced elevations of pSPAK and pNKCC1,pSPAK/pOSR1 and pNKCC1; [2],55-65%
same,effect on ischemia-induced increases of pSPAK/pOSR1 and pNKCC1,pSPAK/pOSR1 and pNKCC1; [3],prevented ischemia-induced increases
same,reduction of ischemia-induced elevations of pKCC3,pKCC3; [2],30%
same,effect on ischemia-induced increases of pKCC3,pKCC3; [3],prevented ischemia-induced increases
same,corner test,[1]; days 1-7 post-stroke,reduced unidirectional turn preference and absence of asymmetries by day 7 post-stroke
same,adhesive removal test,"[1]; vs vehicle, p<0.05",significantly improved motor function
same,adhesive contact test,"[1]; vs vehicle, p=0.10",trend to faster contact response
same,% residual kinase activity,AMPK (hum); 1 μM,126 ± 4%
same,% residual kinase activity,AMPK (hum); 10 μM,108 ± 4%
